Like-named read-outs stand apart in the source and are kept apart here.

Data set [1] deals with MCF-7. The following applies: MCF-7, period of 240 minutes.
The test system of data set [2] is C-6BAG glioma. Conditions: period of 240 minutes.
Data set [3] deals with C6 glioma cell line. Conditions: from maximum accumulation at 30 minutes.
The subject of data set [4] is CV-1 normal cell line.
The conditions of data set [5]: rat, microPET.
Protocol: (§1) Rats (250-300 grams) or rabbits (3-4 Kg) were anesthetized and placed ventrally to the imaging position and 0.4-1 mCi of the FTPP was injected into the vain. Three-dimensional dynamic data were acquired in list mode for one hour starting from the injection of the radiolabeled ligand.
(§2) PET imaging was conducted with a microPET, P4 system (Concorde Microsystems Inc, Knoxville, Tenn.). The length of the field of view is 8 cm and the diameter is 22 cm allowing entire upper body imaging of the rat or rabbit during a single acquisition. The imaging parameters of this system are in-plane and axial resolution of 1.2 mm full width of photopeak measured at half maximal count.
The conditions of data set [6]: rabbit.
Protocol: as §1, §2
The rabbit was anesthetized, placed in the microPET camera (body marks in the camera positioning were made) and sequential images were obtained for ten minutes following the administration of 3 mCi of N-13-ammonia (FIG. 10). One hour later, FTPP was injected followed by 60 minute sequential imaging of the rabbit (FIG. 11). Image corrections for the remaining N-13-ammonia activity were made with an appropriate program. One day later, the same rabbit underwent an LAD occlusion protocol, positioned in the same camera field of view and the above dual agent imaging sequence was repeated.
Data set [7] is described as follows: Biodistribution of FTTP in rats after intravenous administration.
[8] abbreviates: 5 min post administration (Table 1).
[9] abbreviates: 30 min post administration (Table 1).
Setting [10] is: 60 min post administration (Table 1).

For “[I-125]-p-iodophenyltriphenylphosponium nitrate [TPPI]”, the cell retention result is recorded as “High retention” in data set [1], “High retention” in data set [2] and “partial washout” in data set [3]. The cell uptake entry in data set [4] was “no significant uptake”.
For `O=[N+]([O-])[O-].[18F]c1ccc([P+](c2ccccc2)(c2ccccc2)c2ccccc2)cc1` [FTTP, [F-18]-(4-fluorophenyl)triphenylphosphonium nitrate], the “time after injection at which heart activity reaches a plateau” value in data set [5] was 1 min. For the same compound, the myocardial retention result in data set [6] (late images at 60 min) is given as “high myocardial retention”. The “time after injection at which heart activity reaches a plateau” value in data set [6] (microPET) is 1 min. In addition, in data set [7] (setting [8]), the Heart/Blood ratio came to 11 % ID/g, the Heart/Liver ratio is 5 % ID/g and the Heart/Lung ratio worked out at 2 % ID/g. In addition, in data set [7] (setting [9]), the Heart/Blood ratio is recorded as 75 % ID/g, the Heart/Liver ratio amounted to 8 % ID/g and the Heart/Lung ratio is 5 % ID/g. Further, in data set [7] (setting [10]), the Heart/Blood ratio worked out at 70 % ID/g, the Heart/Liver ratio is 8 % ID/g and the Heart/Lung ratio is on record as 4 % ID/g. Besides, in data set [7] (iv, 5 min), the “Bone accumulation (indication of defluorination)” value was 0.31 ID/g, the Heart-to-lung ratio came out at 2.4, the Lung activity is 0.69 ID/g and the “accumulation in heart relative to blood” value worked out at 11 fold. Moreover, in data set [7] (iv, 5 min), the “accumulation in heart relative to liver” value stood at 5 fold, the “accumulation in the heart” value is on record as 1.64 ID/g and the liver uptake is 0.18 ID/g. In data set [7] (iv, 30 min), the Heart-to-lung ratio came to 5.0, the Lung activity is on record as 0.30 ID/g, the liver uptake was 0.17 ID/g and the “uptake of radioactivity in the heart” value was determined as 1.5 ID/g. For the same compound, in data set [7] (iv, 60 min), the “Bone accumulation (indication of defluorination)” value is 0.39 ID/g, the Heart-to-lung ratio worked out at 3.2, the Lung activity is recorded as 0.38 ID/g and the liver uptake turned out to be 0.17 ID/g.
